Results taken from patent US20240254115A1 (ACONDICIONAMIENTO TARRASENSE, priority 2021, published 2024).
Each block holds one compound with its values, some of them ahead of it.

Columns and labels:
[1] = molecular target: T1, human σ1 receptor (Homo sapiens, UniProt Q99720); test: Human σ1 receptor radioligand assay; settings: transfected HEK-293 membranes, 5 nM [3H](+)-pentazocine, 37° C. 120 minutes; + may also stand for 1-50% inhibition at 1 or 10 μM; read-out: Binding σ-1 Ki
T1 construct: expressed in transfected cells; host or cells: HEK-293
In short: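 Membranes (7 μg) were incubated with 5 nM [3H](+)-pentazocine in 50 mM Tris-HCl pH 8 for 120 min at 37° C. Non-specific binding was defined with 10 μM haloperidol. Values are % inhibition at 1 or 10 μM or Ki from five concentrations, read by filtration and scintillation counting.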

[2] = molecular target: T2, human σ2/TMEM97 receptor (Homo sapiens, UniProt Q5BJF2); test: Binding assay to human σ2/TMEM97 receptor; settings: transfected HEK-293 membranes, 10 nM [3H]-DTG, 25° C. 120 minutes; + may also stand for 1-50% inhibition at 1 or 10 μM; read-out: Binding σ-2 Ki
T2 construct: expressed in transfected cells; host or cells: HEK-293
In short: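 Membranes from transfected HEK-293 cells (15 µg) were incubated with 10 nM [3H]-DTG in 50 mM Tris-HCl pH 8.0 for 120 min at 25 °C, with 10 µM haloperidol defining non-specific binding. Filtration and scintillation counting followed. Compounds tested as % inhibition at 1 or 10 µM, or at five concentrations for Ki.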

T1 sequence (Q99720 whole entry): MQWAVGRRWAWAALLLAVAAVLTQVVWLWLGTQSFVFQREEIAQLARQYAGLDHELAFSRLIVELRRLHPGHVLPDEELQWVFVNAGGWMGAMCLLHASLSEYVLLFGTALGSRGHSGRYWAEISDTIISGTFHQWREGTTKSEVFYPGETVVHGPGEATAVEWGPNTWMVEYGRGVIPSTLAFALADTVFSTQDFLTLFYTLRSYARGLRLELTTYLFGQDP
T2 sequence (Q5BJF2 whole entry): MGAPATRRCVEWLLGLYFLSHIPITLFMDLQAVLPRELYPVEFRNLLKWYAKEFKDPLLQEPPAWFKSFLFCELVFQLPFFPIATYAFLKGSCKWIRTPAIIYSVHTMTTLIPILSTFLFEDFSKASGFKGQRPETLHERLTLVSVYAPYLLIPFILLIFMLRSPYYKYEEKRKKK

SMILES: CC(C)CN1CCC2(CC1)CCN(S(=O)(=O)c1ccc(C(F)(F)F)nc1)CC2 [Example 91, 3-Isobutyl-9-((6-(trifluoromethyl)pyridin-3-yl)sulfonyl)-3,9-diazaspiro[5.5]undecane]
Ki [1]: 500 to 1000 nM | Ki [2]: < 100 nM

SMILES: CC(C)CCN1CCC2(CC1)CCN(S(=O)(=O)c1ccc(C(F)(F)F)nc1)CC2 [Example 93, 3-Isopentyl-9-((6-(trifluoromethyl)pyridin-3-yl)sulfonyl)-3,9-diazaspiro[5.5]undecane]
Ki [1]: < 100 nM | Ki [2]: < 100 nM

SMILES: CC(=O)N(C)c1ccc(S(=O)(=O)N2CCCC3(CCN(CCC(C)(C)C)CC3)C2)cn1 [Example 102, N-(5-((9-(3,3-Dimethylbutyl)-2,9-diazaspiro[5.5]undecan-2-yl)sulfonyl)pyridin-2-yl)-N-methylacetamide]
Ki [1]: 100 to 500 nM | Ki [2]: < 100 nM

SMILES: CC(=O)N(C)c1ccc(S(=O)(=O)N2CCC3(CCN(CCC(C)(C)C)CC3)CC2)cn1 [Example 103, N-(5-((9-(3,3-Dimethylbutyl)-3,9-diazaspiro[5.5]undecan-3-yl)sulfonyl)pyridin-2-yl)-N-methylacetamide]
Ki [1]: 100 to 500 nM | Ki [2]: < 100 nM

SMILES: CCC(=O)N(C)c1ccc(S(=O)(=O)N2CCC3(CCN(CCC(C)(C)C)CC3)CC2)cn1 [Example 105, N-(5-((9-(3,3-Dimethylbutyl)-3,9-diazaspiro[5.5]undecan-3-yl)sulfonyl)pyridin-2-yl)-N-methylpropionamide]
Ki [1]: 100 to 500 nM | Ki [2]: < 100 nM

SMILES: CCC(=O)Nc1ccc(S(=O)(=O)N2CCCC3(CCN(CCC(C)(C)C)CC3)C2)cn1 [Example 106, N-(5-((9-(3,3-Dimethylbutyl)-2,9-diazaspiro[5.5]undecan-2-yl)sulfonyl)pyridin-2-yl)propionamide]
Ki [1]: < 100 nM | Ki [2]: < 100 nM

SMILES: CC(=O)Nc1ccc(S(=O)(=O)N2CCCC3(CCN(CCC(C)(C)C)CC3)C2)cn1 [Example 107, N-(5-((9-(3,3-Dimethylbutyl)-2,9-diazaspiro[5.5]undecan-2-yl)sulfonyl)pyridin-2-yl)acetamide]
Ki [1]: 100 to 500 nM | Ki [2]: < 100 nM

SMILES: CCc1ccc(S(=O)(=O)N2CCC3(CCN(CCC(C)(C)C)CC3)CC2)cn1 [Example 109, 3-(3,3-Dimethylbutyl)-9-((6-ethylpyridin-3-yl)sulfonyl)-3,9-diazaspiro[5.5]undecane]
Ki [1]: < 100 nM | Ki [2]: < 100 nM

SMILES: Cc1ccc(S(=O)(=O)N2CCC3(CCN(CCC(C)(C)C)CC3)CC2)cn1 [Example 110, 3-(3,3-Dimethylbutyl)-9-((6-methylpyridin-3-yl)sulfonyl)-3,9-diazaspiro[5.5]undecane]
Ki [1]: < 100 nM | Ki [2]: < 100 nM

SMILES: CC(C)(C)CCN1CCC2(CCCN(S(=O)(=O)c3ccc(-c4ccncc4)nc3)C2)CC1 [Example 112, 2-([2,4′-Bipyridin]-5-ylsulfonyl)-9-(3,3-dimethylbutyl)-2,9-diazaspiro[5.5]undecane]
Ki [1]: < 100 nM | Ki [2]: < 100 nM

SMILES: CC(C)(C)CCN1CCC2(CC1)CCN(S(=O)(=O)c1ccc(-c3ccncc3)nc1)CC2 [Example 113, 3-([2,4′-Bipyridin]-5-ylsulfonyl)-9-(3,3-dimethylbutyl)-3,9-diazaspiro[5.5]undecane]
Ki [1]: 100 to 500 nM | Ki [2]: < 100 nM

SMILES: CC(C)(C)CCN1CCC2(CC1)CCN(S(=O)(=O)c1ccc(-c3ccncc3)nc1)C2 [Example 114, 2-([2,4′-Bipyridin]-5-ylsulfonyl)-8-(3,3-dimethylbutyl)-2,8-diazaspiro[4.5]decane]
Ki [1]: < 100 nM | Ki [2]: < 100 nM

SMILES: CC(C)(C)CCN1CCCC2(CCN(S(=O)(=O)c3ccc(-c4ccncc4)nc3)CC2)C1 [Example 115, 9-([2,4′-Bipyridin]-5-ylsulfonyl)-2-(3,3-dimethylbutyl)-2,9-diazaspiro[5.5]undecane]
Ki [1]: < 100 nM | Ki [2]: < 100 nM

SMILES: CN(Cc1ccc(F)cc1)[C@H]1CC[C@H](NS(=O)(=O)c2ccc(N3CCOCC3)cn2)CC1 [Example 119, N-((1r,4r)-4-((4-Fluoro-benzyl)(methyl)amino)cyclo-hexyl)-5-morpholinopyridine-2-sulfonamide]
Ki [1]: > 1000 nM | Ki [2]: < 100 nM

Further lines, results first:

Ki [1]: < 100 nM | Ki [2]: < 100 nM
SMILES: CC(C)(C)CCN1CCC2(CCCN(S(=O)(=O)c3ccc(C(F)(F)F)nc3)C2)CC1 [Example 92, 9-(3,3-Dimethylbutyl)-2-((6-(trifluoromethyl)pyridin-3-yl)sulfonyl)-2,9-diazaspiro[5.5]undecane]

Ki [1]: 100 to 500 nM | Ki [2]: < 100 nM
SMILES: CNc1ccc(S(=O)(=O)N2CCCC3(CCN(CCC(C)(C)C)CC3)C2)cn1 [Example 94, 5-((9-(3,3-Dimethylbutyl)-2,9-diazaspiro[5.5]undecan-2-yl)sulfonyl)-N-methylpyridin-2-amine]

Ki [1]: < 100 nM | Ki [2]: < 100 nM
SMILES: CC(C)(C)CCN1CCC2(CCCN(S(=O)(=O)c3ccc(N4CCC5(CCOC5)CC4)nc3)C2)CC1 [Example 95, 8-(5-((9-(3,3-Dimethylbutyl)-2,9-diazaspiro[5.5]undecan-2-yl)sulfonyl)pyridin-2-yl)-2-oxa-8-azaspiro[4.5]decane]

Ki [1]: < 100 nM | Ki [2]: < 100 nM
SMILES: CC(C)(C)CCN1CCC2(CCCN(S(=O)(=O)c3ccc(N4CCC(F)(F)CC4)nc3)C2)CC1 [Example 96, 2-((6-(4,4-Difluoropiperidin-1-yl)pyridin-3-yl)sulfonyl)-9-(3,3-dimethylbutyl)-2,9-diazaspiro[5.5]undecane]

Ki [1]: < 100 nM | Ki [2]: < 100 nM
SMILES: CN(C)c1ccc(S(=O)(=O)N2CCCC3(CCN(CCC(C)(C)C)CC3)C2)cn1 [Example 97, 5-((9-(3,3-Dimethylbutyl)-2,9-diazaspiro[5.5]undecan-2-yl)sulfonyl)-N,N-dimethylpyridin-2-amine]

Ki [1]: < 100 nM | Ki [2]: < 100 nM
SMILES: CC(C)(C)CCN1CCC2(CCCN(S(=O)(=O)c3ccc(N4CCC5(CCCO5)CC4)nc3)C2)CC1 [Example 98, 8-(5-((9-(3,3-Dimethylbutyl)-2,9-diazaspiro[5.5]undecan-2-yl)sulfonyl)pyridin-2-yl)-1-oxa-8-azaspiro[4.5]decane]

Ki [1]: 100 to 500 nM | Ki [2]: < 100 nM
SMILES: CC(C)(C)CN1CCC2(CC1)CCN(S(=O)(=O)c1ccc(N3CCC(F)(F)CC3)nc1)CC2 [Example 99, 3-((6-(4,4-Difluoropiperidin-1-yl)pyridin-3-yl)sulfonyl)-9-neopentyl-3,9-diazaspiro[5.5]undecane]

Ki [1]: < 100 nM | Ki [2]: < 100 nM
SMILES: CN(CC(C)(C)C)C1CCN(S(=O)(=O)c2ccc(N3CCC(F)(F)CC3)nc2)CC1 [Example 100, 1-((6-(4,4-Difluoropiperidin-1-yl)pyridin-3-yl)sulfonyl)-N-methyl-N-neopentylpiperidin-4-amine]

Ki [1]: < 100 nM | Ki [2]: < 100 nM
SMILES: O=S(=O)(c1ccc(N2CCC(F)(F)CC2)nc1)N1CCCC2(CCN(CC3CCOCC3)CC2)C1 [Example 101, 2-((6-(4,4-Difluoropiperidin-1-yl)pyridin-3-yl)sulfonyl)-9-((tetrahydro-2H-pyran-4-yl)methyl)-2,9-diazaspiro[5.5]undecane]

Ki [1]: 100 to 500 nM | Ki [2]: < 100 nM
SMILES: CCC(=O)N(C)c1ccc(S(=O)(=O)N2CCCC3(CCN(CCC(C)(C)C)CC3)C2)cn1 [Example 104, N-(5-((9-(3,3-Dimethylbutyl)-2,9-diazaspiro[5.5]undecan-2-yl)sulfonyl)pyridin-2-yl)-N-methylpropionamide]

Ki [1]: < 100 nM | Ki [2]: < 100 nM
SMILES: Cc1ccc(S(=O)(=O)N2CCCC3(CCN(CCC(C)(C)C)CC3)C2)cn1 [Example 108, 9-(3,3-Dimethylbutyl)-2-((6-methylpyridin-3-yl)sulfonyl)-2,9-diazaspiro[5.5]undecane]

Ki [1]: < 100 nM | Ki [2]: < 100 nM
SMILES: CCc1ccc(S(=O)(=O)N2CCCC3(CCN(CCC(C)(C)C)CC3)C2)cn1 [Example 111, 9-(3,3-Dimethylbutyl)-2-((6-ethylpyridin-3-yl)sulfonyl)-2,9-diazaspiro[5.5]undecane]

Ki [1]: < 100 nM | Ki [2]: < 100 nM
SMILES: CC(C)(C)CCN1CCC2(CCCN(S(=O)(=O)c3ccc(C4CCOCC4)nc3)C2)CC1 [Example 116, 9-(3,3-Dimethylbutyl)-2-((6-(tetrahydro-2H-pyran-4-yl)pyridin-3-yl)sulfonyl)-2,9-diazaspiro[5.5]undecane]

Ki [1]: 100 to 500 nM | Ki [2]: < 100 nM
SMILES: CC(C)(C)CCN1CCC2(CC1)CCN(S(=O)(=O)c1ccc(C3CCOCC3)nc1)CC2 [Example 117, 3-(3,3-Dimethylbutyl)-9-((6-(tetrahydro-2H-pyran-4-yl)pyridin-3-yl)sulfonyl)-3,9-diazaspiro[5.5]undecane]

Ki [1]: 100 to 500 nM | Ki [2]: < 100 nM
SMILES: CC(C)(C)CCN1CCC2(CCCN(S(=O)(=O)c3ccc(N4CCS(=O)(=O)CC4)nc3)C2)CC1 [Example 118, 4-(5-((9-(3,3-Dimethylbutyl)-2,9-diazaspiro[5.5]undecan-2-yl)sulfonyl)pyridin-2-yl)thiomorpholine 1,1-dioxide]

Ki [1]: 100 to 500 nM | Ki [2]: < 100 nM
SMILES: CC(C)(C)CCN1CCC2(CCCN(S(=O)(=O)c3ccc(N4CCOCC4=O)nc3)C2)CC1 [Example 120, 4-(5-((9-(3,3-Dimethylbutyl)-2,9-diazaspiro[5.5]undecan-2-yl)sulfonyl)pyridin-2-yl)morpholin-3-one]

Ki [1]: < 100 nM | Ki [2]: < 100 nM
SMILES: CC(C)(C)CCN1CCC2(CCCN(S(=O)(=O)c3ccc(N4CCCC4=O)nc3)C2)CC1 [Example 121, 1-(5-((9-(3,3-Dimethylbutyl)-2,9-diazaspiro[5.5]undecan-2-yl)sulfonyl)pyridin-2-yl)pyrrolidin-2-one]
